Here are results for six compounds from US11053241B2, “TYK2 inhibitors and uses thereof” (Nimbus Lakshmi, Inc., priority 2018, dated 2021).

For experiment [1], the target named is human TYK2 (JH2domain-pseudokinase) (Homo sapiens (Human), UniProt P29597). The experiment in a line: TYK2 JH2 Domain Binding Assay (KINOMEscan). As to conditions: 11-point 3-fold dilution, top concentration 30,000 nM, duplicate. The essentials: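 Competition binding used an NFkB-DNA-tagged fusion of TYK2 JH2 (G556–D888) expressed in HEK293 extracts against an immobilised ligand, 1 h at room temperature. Bead-bound kinase was quantified by qPCR. Kd came from an 11-point 3-fold series with a 30,000 nM top concentration and 0.9% DMSO, Hill slope −1, run in duplicate.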
human TYK2 (JH2domain-pseudokinase), sequence (P29597 556-888): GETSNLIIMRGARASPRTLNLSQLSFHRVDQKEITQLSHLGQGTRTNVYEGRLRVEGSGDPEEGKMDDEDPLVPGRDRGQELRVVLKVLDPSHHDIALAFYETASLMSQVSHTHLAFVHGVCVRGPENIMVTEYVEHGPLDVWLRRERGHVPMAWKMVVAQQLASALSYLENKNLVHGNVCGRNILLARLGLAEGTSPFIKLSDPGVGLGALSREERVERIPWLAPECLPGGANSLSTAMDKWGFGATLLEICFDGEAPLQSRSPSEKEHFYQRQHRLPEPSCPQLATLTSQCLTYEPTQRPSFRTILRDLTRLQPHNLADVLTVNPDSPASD

Experiment [2] has as its target TYK2 kinase domain (JH1) (Homo sapiens (Human), UniProt P29597). The experiment in a line: TYK2 Radioactive Kinase Assay. Type of experiment: biochemical. The settings on record: compound at 10 μM; ATP at 10 μM; 120 min at room temp. Here is the method: (§1) Peptide substrate, [KKSRGDYMTMQIG], (20 μM) was prepared in reaction buffer (20 mM Hepes pH 7.5, 10 mM MgCl2, 1 mM EGTA, 0.02% Brij35, 0.02 mg/mL BSA, 0.1 mM […], 2 mM DTT, 1% DMSO). TYK2 (Invitrogen) kinase was added, followed by compounds in DMSO. ^33PATP was added to initiate the reaction in ATP at 10 μM. The kinase reaction was incubated for 120 min at room temp and reactions were spotted onto P81 ion exchange paper (Whatman #3698-915), and then washed extensively in 0.75% phosphoric acid, prior to reading the radioactivity counts. For JAK2 (Invitrogen) kinase assay the peptide substrate poly[Glu:Tyr](4:1), 0.2 mg/ml was used, in the reaction carried out the same as for TYK2.
(§2) The TYK2 and JAK2 radioactive kinase assay measures the percent inhibition at the TYK2 kinase domain (JH1) and the percent inhibition at the JAK2 kinase domain (JH1). Results of the assay are expressed as percent inhibition at 10 μM.

Experiment [3] has as its target JAK2 kinase domain (JH1) (Homo sapiens (Human), UniProt O60674). The experiment can be described thus: JAK2 Radioactive Kinase Assay. The experiment is classed as biochemical. The settings on record: compound at 10 μM; ATP at 10 μM; substrate poly[Glu:Tyr](4:1). Here is the method: as §1, §2
Experiment [4] relates to IL-12 induced STAT4 phophorylation mediated by TYK2/JAK2 (heterodimeric complex). The experiment can be described thus: IL-12 Induced pSTAT4 in Human PBMC. Type of experiment: cell-based. The settings on record: 1.7 ng/mL IL-12 for 30 minutes, 1 hr compound preincubation. Here is the method: (§3) Human PBMC were isolated from buffy coat and were stored frozen for assays as needed. Cells for assay were thawed and resuspended in complete media containing serum, then cells were diluted to 1.67 E6 cells/mL so that 120 μl per well is 200,000 cells. 15 μl of compound or DMSO was added to the well at the desired concentrations and incubated at 1 hr at 37 C. 15 μl of stimulus (final concentration of 1.7 ng/mL IL-12) was added for 30 minutes prior to pSTAT4 and total STAT4 analysis using cell lysates prepared and analyzed by MSD reagents as per manufacturer protocol. The final DMSO concentration of compound in the assay was 0.1%.
The IL-12 Induced pSTAT4 assay evaluates the inhibition of IL-12 induced STAT4 phophorylation mediated by TYK2/JAK2 (heterodimeric complex).

Experiment [5] has as its system GM-CSF induced STAT5 phopsphorylation mediated by the JAK2/JAK2 homodimeric complex. The experiment in a line: GM-CSF Induced pSTAT5 in Human PBMC. The experiment is classed as cell-based. As to conditions: 20 min, GM-CSF 5 ng/mL for 20 minutes, read-out: PBMC_GMCSF_pSTAT5 IC50. As to the method:
as §3
Cells were prepared for analysis as in the above procedure and 15 μl of GM-CSF (final concentration 5 ng/mL) was added for 20 minutes prior to pSTAT5 and total STAT5 analysis using cell lysates prepared and analyzed by MSD reagents as per manufacturer protocol. The final DMSO concentration of compound in the assay was 0.1%.
The GM-CSF Induced pSTAT5 assay is a JAK2 cellular selectivity assay which evaluates inhibition of GM-CSF induced STAT5 phopsphorylation mediated by the JAK2/JAK2 homodimeric complex.

pIC50, pKd: −log10 of the molar value.

TYK2 kinase domain (JH1), sequence (P29597 897-1176): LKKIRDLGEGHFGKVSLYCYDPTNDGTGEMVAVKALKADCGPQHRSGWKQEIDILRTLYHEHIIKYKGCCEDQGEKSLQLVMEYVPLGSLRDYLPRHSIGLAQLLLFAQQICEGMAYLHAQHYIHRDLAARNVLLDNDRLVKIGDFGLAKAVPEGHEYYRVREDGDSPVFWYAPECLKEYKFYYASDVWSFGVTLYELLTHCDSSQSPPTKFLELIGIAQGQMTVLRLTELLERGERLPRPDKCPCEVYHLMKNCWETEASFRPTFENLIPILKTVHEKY
JAK2 kinase domain (JH1), sequence (O60674 849-1124): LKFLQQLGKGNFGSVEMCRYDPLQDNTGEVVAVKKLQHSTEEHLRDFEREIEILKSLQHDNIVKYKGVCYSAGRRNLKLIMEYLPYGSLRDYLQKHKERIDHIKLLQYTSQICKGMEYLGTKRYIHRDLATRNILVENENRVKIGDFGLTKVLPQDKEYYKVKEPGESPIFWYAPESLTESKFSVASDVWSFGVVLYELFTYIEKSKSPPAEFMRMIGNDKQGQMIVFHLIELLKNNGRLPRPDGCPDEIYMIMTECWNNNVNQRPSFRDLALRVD

A word on the pKd: it is the negative decadic logarithm of the Kd, by convention in mol/L. Read a low pKd as a high Kd. Usually inhibition stands for the share of the control response that was lost under treatment. For orientation: pIC50 means the IC50 on a negative log10 scale, so that one unit is a factor of ten. In experiment [1], `CNC(=O)c1cnc(NC(=O)C2CC2)c2[nH]c(-c3ccccc3N3CCCS3(=O)=O)cc12` [Compound I-4, 7-(cyclopropanecarboxamido)-2-(2-(1,1-dioxidoisothiazolidin-2-yl)phenyl)-N-methyl-1H-pyrrolo[2,3-c]pyridine-4-carboxamide] had a negative logarithm of the Kd (pKd) of over 9.70. In addition, the inhibition at 10 µM in experiment [2] and in experiment [3] was under 50% in each case. The results for the pIC50 in experiment [4] and in experiment [5] were over 7.00 and under 4.90, respectively.

For `CNC(=O)c1cnc(NC(=O)C2CC2)c2[nH]c(-c3cccc(-c4ncn(C)n4)c3)cc12` [Compound I-2, 7-(cyclopropanecarboxamido)-N-methyl-2-(3-(1-methyl-1H-1,2,4-triazol-3-yl)phenyl)-1H-pyrrolo[2,3-c]pyridine-4-carboxamide], in experiment [1], the pKd was over 9.70. Moreover, the inhibition at 10 µM in experiment [2] and in experiment [3] was under 50% throughout. Moreover, the figures for the pIC50 in experiment [4] and in experiment [5] were over 7.00 and under 4.30, respectively.

Turning to `CNC(=O)c1cnc(NC(=O)C2CC2)c2[nH]c(-c3cccc(-c4ncco4)c3F)cc12` [Compound I-23, 7-(cyclopropanecarboxamido)-2-(2-fluoro-3-(oxazol-2-yl)phenyl)-N-methyl-1H-pyrrolo[2,3-c]pyridine-4-carboxamide], the pKd in experiment [1] was over 9.70. Also, the inhibition at 10 µM in experiment [2] and in experiment [3] was under 50% each time. Also, the figures for the pIC50 in experiment [4] and in experiment [5] were over 7.00 and under 4.30, respectively.

In turn, `CNC(=O)c1cnc(NC(=O)C2CC2)c2[nH]c(-c3ccccc3)cc12` [Compound I-1, 7-(cyclopropanecarboxamido)-N-methyl-2-phenyl-1H-pyrrolo[2,3-c]pyridine-4-carboxamide] showed a pKd in experiment [1] of 8.00 to 9.00. The inhibition at 10 µM in experiment [2] and in experiment [3] was under 50% in each case. The values for the negative logarithm of the IC50 (pIC50) in experiment [4] and in experiment [5] were 6.00 to 6.30 and under 4.30, respectively.

`Cn1cnc(-c2cccc(-c3cc4c(C(N)=O)cnc(NC(=O)C5CC5)c4[nH]3)c2)n1` [Compound I-12, 7-(cyclopropanecarboxamido)-2-(3-(1-methyl-1H-1,2,4-triazol-3-yl)phenyl)-1H-pyrrolo[2,3-c]pyridine-4-carboxamide] had a pKd in experiment [1] of over 9.70. In addition, the inhibition at 10 µM in experiment [2] and in experiment [3] was over 90% in each case. The negative-log IC50 (pIC50) was over 7.00 in experiment [4] and under 6.52 in experiment [5].

`CNC(=O)c1cnc(NC(=O)C2CC2)c2[nH]c(-c3cccc(-c4cnn(C)c4)c3F)cc12` [Compound I-19, 7-(cyclopropanecarboxamido)-2-(2-fluoro-3-(1-methyl-1H-pyrazol-4-yl)phenyl)-N-methyl-1H-pyrrolo[2,3-c]pyridine-4-carboxamide] gave a negative-log Kd (pKd) in experiment [1] of over 9.70. The inhibition at 10 µM in experiment [2] and in experiment [3] was under 50% throughout. Further, the pIC50 in experiment [4] was over 7.00; in experiment [5] it was under 6.52.
